Measurements from patent publication US10968224B2, “2,11-diaza-[3.3](2,6)pyridinophane compounds and their application as ligands of essential metal ion based MRI contrast agents and 52MN based PET contrast agents” (DEBRECENI EGYETEM, priority 2015, dated 2021).

Key:
[1] = Equilibrium study: protonation constants of the ligands; assay type: physicochemical; conditions: 25° C., 0.15M NaCl
Description: (§1) During the physico-chemical studies of BP2AM^Pyp and BP2AM^Pro compounds prepared according to Example 1 and 2, their protonation constants, as well as equilibrium behaviour and kinetic inertness of their Mn(II) complexes was studied in detail, and the characteristic relaxivity values of the complexes were determined in the presence and absence of HSA (Human Serum Albumin), at 25 and 37° C. and physiological pH. All studies were performed in the presence of 0.15 M NaCl, the same concentration as that of the electrolyte under physiological conditions.
(§2) The results of equilibrium study are summarized in Table 1, in addition to the protonation constants, total basicity of ligands and stability constants of their Mn(II) complexes, the pMn value calculated for complexes are also represented in the table.

[2] = Equilibrium study: stability constants of the Mn(II) complexes and calculated pMn; assay type: physicochemical; conditions: 25° C., 0.15M NaCl; for pMn: calculated from equilibrium constants at pH = 7.4 and cMn = cL = 10^−5 M
Description: as §1, §2
Based on the pMn values presented in Table 1 (calculated using the equilibrium constants at pH=7.4 and cMn=cL=10^−5 M), it can be concluded that the studied Mn(II) complexes are formed in 100% at physiological pH, which is an essential aspect of the practical use.

[3] = literature values, stated as under the same conditions; cited from earlier work
[4] = cited from earlier work

For `O=C(O)C1CCCN1C(=O)CN1Cc2cccc(n2)CN(CC(=O)N2CCCC2C(=O)O)Cc2cccc(n2)C1` (stereo not shown) [BP2AM^Pro], the “logK1 (protonation constant)” value [1] was 8.83(1), the “logK2 (protonation constant)” value [1] was 3.89(2) and the “logK3 (protonation constant)” value [1] was 3.05(2). For the same compound, the “logK4 (protonation constant)” value [1] was 2.39(2), the “ΣlogKi^H (total basicity)” value [1] was 18.16 and the “logKMnL (stability constant of Mn(II) complex)” value [2] was 11.47(5). For the same compound, the pMn [2] was 7.51.

In the case of `O=C(CN1Cc2cccc(n2)CN(CC(=O)N2CCCCC2)Cc2cccc(n2)C1)N1CCCCC1` [BP2AM^Pyp, 2,11-bis[2-oxo-2-(piperidine-1-il)-ethyl]-2,11-diaza[3.3](2,6)-pyridinophane], the “logK1 (protonation constant)” value [1] is reported as 9.57(2), the “logK2 (protonation constant)” value [1] is reported as 2.99(2) and the “ΣlogKi^H (total basicity)” value [1] is reported as 12.56. For the same compound, the “logKMnL (stability constant of Mn(II) complex)” value [2] was 13.58(1) and the pMn [2] was 8.19.

For `CNC[C@H](O)[C@@H](O)[C@H](O)[C@H](O)CO.O=C([O-])CN1CCN(CC(=O)[O-])CCN(CC(=O)O)CCN(CC(=O)[O-])CC1.[Gd+3]` [DOTAREM], the r1 relaxivity [3] is given as 3.83 mM⁻¹ s⁻¹.

In the case of `CNC[C@H](O)[C@@H](O)[C@H](O)[C@H](O)CO.CNC[C@H](O)[C@@H](O)[C@H](O)[C@H](O)CO.O=C([O-])CN(CCN(CC(=O)[O-])CC(=O)O)CCN(CC(=O)[O-])CC(=O)O.[Gd+3]` [MAGNEVIST], the r1 relaxivity [3] is given as 4.02 mM⁻¹ s⁻¹, the “Gd(III) ion released, calculated on the basis of experiments” value ([4]; 25° C.) is given as 0.5% and the “Gd(III) ion released during in vivo dissociation” value ([4]; 37° C.) is given as 2.2%.
